Test results published in patent US6713603B2, “Chiral peptide nucleic acids” (Isis Innovation Limited, priority 1996, dated 2004).
[cPNA-N] = chiral peptide nucleic acid unit: glycyl-D-proline with cis-4-nucleobase (N: the base); {LysNH2} = C-terminal L-lysinamide cap

How the values were obtained:
dA10 [1] = test: 1H NMR experiment: mixing DD-ST10 with dA10 (solubility of complex); assay type: physicochemical; conditions: 0.5 mM DD-ST10 in 10% D2O-H2O
Method: A ^1H NMR study of a mixture of DD-ST10 and dA10 was attempted.
^1H NMR study of a mixture of DD-ST10 and dA10 was performed on a Bruker AMX 500 spectrometer (500 MHz). The ^1H NMR spectra of DD-ST10 and dA10 were recorded separately (at a concentration of 0.53 mM for the DD-ST10 and 0.67 mM for the dA10 in 10% D2O in H2O).

dA10 [2] = test: Melting curves (Tm) of hybrids of cPNAs with dA10; assay type: binding; conditions: 260 nm; for Tm with dA10: 150 mM sodium chloride, 10 mM sodium phosphate pH 7.0
Method: Although both cis-D and cis-L analogues gave melting curves with poly(dA) and poly(rA), only the cis-D analogue gave a well-defined melting curve with (dA)10, with Tm=61° C., under the same conditions.
(§1) Further investigation of the nature of the cis-D peptide nucleic acid-oligonucleotide interaction was undertaken by determining the melting curve with (dT)10.
(§2) All the Tm measurements were carried out on a Varian CARY 13 UV spectrophotometer equipped with a temperature control system. The machine was controlled by a CARY 13 software running on an IBM PS/2 system model 30/286. The sample for Tm measurement was prepared by mixing calculated amounts of stock oligonucleotide and nucleopeptide solutions together and the calculated amounts of NaCl and sodium phosphate buffer (pH 7.0) were then added as stock solutions and the final volumes were adjusted to 3.0 ml by addition of water. The samples were transferred to a 10 mm quartz cell with teflon stopper and equilibrated at the starting temperature for at least 30 min. The OD260 was recorded in steps from 5-95° C. (heater temperature) with a temperature increment of 0.25-0.5° C./min, The results were normalised by dividing the absorbance at each temperature by the initial absorbance. Analysis of the data was performed on a KaleidaGraph software 2.1.3 (Abelbeck Software) running on a Macintosh LC III computer. The OD260 was normalised by dividing with the initial OD260. The melting temperatures were determined from the maxima of the first derivative plots of the normalised OD260 against temperature. Percent hyperchromicity was calculated from the ratio of the OD260 at the end of experiment to the initial OD260.

poly(dA) = test: Melting curves (Tm) of 1:1 hybrids of cPNAs with poly(dA); assay type: binding; conditions: for Tm with poly (dA): 1:1 hybrid, 260 nm; for Tm with poly (dA) / % hypochromicity with poly (dA): 150 mM sodium chloride, 10 mM sodium phosphate pH 7.0; for % hypochromicity with poly (dA): from melting curves at 260 nm
Method: (§3) The deca-thymine glycyl-proline peptide nucleic acids with cis-L, trans-D and cis-D stereochemistry, and C-terminal L-lysinamide were mixed in 1:1 ratio with poly(rA) and poly(dA) in the presence of 150 mM NaCl and sodium phosphate buffer (10 mM Na^+, pH 7.0) and the Tm determined (FIG. 3). […] The magnitudes of absorbance change were of the order of 30-40%.
FIG. 3. The melting curves of the 1:1 hybrids of (a) H-[Gly-L-Pro(cis-4-T)]10-Lys-NH2, (b) H-[Gly-D-Pro(cis-4-T)]10-Lys-NH2, (c) H-[Gly-D-Pro(trans-4-T)]10-Lys-NH2 with poly(dA) at 150 mM NaCl, 10 mM sodium phosphate, pH 7.0 and (d) poly(dA) alone. The poly(dA) concentration was 10.8 μM dA nucleotide. The melting curves were recorded at 260 nm and the rate of heating was 0.5° C./min.
as §2

Solubility in water = assay type: physicochemical
poly(rA) = test: Melting curves (Tm) of 1:1 hybrids of cPNAs with poly(rA); assay type: binding; conditions: 150 mM sodium chloride, 10 mM sodium phosphate pH 7.0; for Tm with poly (rA): 1:1 hybrid, 260 nm; for % hypochromicity with poly (rA): from melting curves at 260 nm
Method: as §3, §2

(dT)10 = test: Melting curve of 1:1 mixture with (dT)10; assay type: binding
Method: as §1
as §2, with “Analysis of the data was performed on a KaleidaGraph software 2.1.3 (Abelbeck Software) running on a Macintosh LC III computer. The OD260 was normalised by dividing with the initial OD260.” left out

Sequence ID No. 3 = test: Tm of mixed-base cPNA hybridised with complementary oligonucleotide Sequence ID No. 3; assay type: binding
From the text: (§4) All four bases found in DNA were introduced into the glycyiproline building units with the cis-D configuration and from these mixed cPNAs containing all four nucleobases have been made. The sequence GTAGATCACT, capped at its C-terminus with L-lysinamide was synthesized, and its binding properties with oligonucleotides investigated. Since it is important to determine the preferred orientation of binding of these novel CPNAs to oligonucleotides, both of the possible complementary oligonucleotides were prepared, i.e. Sequence ID No. 2, and Sequence ID No. 3, and hybridised with the chiral PNA.
(§5) All the Tm measurements were carried out on a Varian CARY 13 UV spectrophotometer equipped with a temperature control system. […] The sample for Tm measurement was prepared by mixing calculated amounts of stock oligonucleotide and nucleopeptide solutions together and the calculated amounts of NaCl and sodium phosphate buffer (pH 7.0) were then added as stock solutions and the final volumes were adjusted to 3.0 ml by addition of water. […] The OD260 was recorded in steps from 5-95° C. (heater temperature) with a temperature increment of 0.25-0.5° C./min, The results were normalised by dividing the absorbance at each temperature by the initial absorbance. […] The melting temperatures were determined from the maxima of the first derivative plots of the normalised OD260 against temperature. […]

[3] = test system: complementary oligonucleotides; test: 1H NMR experiment: mixing cPNA with complementary oligonucleotides (solubility of complex); assay type: physicochemical; conditions: mmolar concentration
Method: Following the promising results obtained on the binding is studies of the cPNA with complementary oligonucleotides by Tm measurement, a ^1H NMR experiment was performed on the mixed sequence decamer, H-Gly-D-Pro(cis-4-G)-Gly-D-Pro(cis-4-T)-Gly-D-Pro(cis-4-A)-Gly-D-Pro(cis-4-G)-Gly-D-Pro(cis-4-A)-Gly-D-Pro(cis-4-T)-Gly-D-Pro(cis-4-C)-Gly-D-Pro(cis-4-A)-Gly-D-Pro(cis-4-C)-Gly-D-Pro(cis-4-T)-LysNH2, and its complementary oligonucleotides, both in parallel and antiparallel fashion. […] In an attempt to overcome this problem it was decided to synthesise a cPNA analogue, containing a hydrophilic spacer amino acid—namely serine—in place of the glycine spacer in the backbone while retaining the cis-D-configuration of the proline moiety. […] Thus the target molecules were diastereomeric thymine-decamers H-[L-Ser-D-Pro(cis-4-T)]10LysNH2 (“LD-ST10”) and H-[D-Ser-D-Pro(cis-4-T)]10LysNH2 (“DD-ST10”).

Sequence ID No. 2 = test: Tm of mixed-base cPNA hybridised with complementary oligonucleotide Sequence ID No. 2; assay type: binding
From the text: as §4, §5

## Cc1cn([C@@H]2C[C@H](C(=O)Oc3c(F)c(F)c(F)c(F)c3F)N(C(=O)CNC(=O)OCC3c4ccccc4-c4ccccc43)C2)c(=O)[nH]c1=O [6c, N-(N-Fluoren-9-ylmethoxycarbonylglycyl)-cis-4-(thymin-1-yl)-D-proline pentafluorophenyl ester]
other
  melting point: 122 to 126 °C

## CC(C)C(=O)Nc1nc2c(ncn2[C@@H]2C[C@H](C(=O)Oc3c(F)c(F)c(F)c(F)c3F)N(C(=O)CNC(=O)OCC3c4ccccc4-c4ccccc43)C2)c(=O)[nH]1 [compound 16, N-(N-Fluoren-9-ylmethoxycarbonylglycyl)-cis-4-(N2-isobutyrylguanin-9-yl)-D-proline pentafluorophenyl ester]
other
  melting point: 146 to 150 °C

## Cc1cn([C@H]2C[C@@H](C(=O)Oc3c(F)c(F)c(F)c(F)c3F)N(C(=O)CNC(=O)OCC3c4ccccc4-c4ccccc43)C2)c(=O)[nH]c1=O [6a, N-(N-Fluoren-9-ylmethoxycarbonylglycyl)-cis-4-(thymin-1-yl)-L-proline pentafluorophenyl ester]
other
  melting point: 124 to 126 °C

## O=C(NCC(=O)N1C[C@H](n2ccc(NC(=O)c3ccccc3)nc2=O)C[C@@H]1C(=O)Oc1c(F)c(F)c(F)c(F)c1F)OCC1c2ccccc2-c2ccccc21 [compound 13, N-(N-Fluoren-9-ylmethoxycarbonylglycyl)-cis-4-(N4-benzoylcytosin-1-yl)-D-proline pentafluorophenyl ester]
other
  melting point: 133 to 137 °C

## Cc1cn([C@H]2C[C@@H](C(=O)O)N(C(=O)CNC(=O)OCC3c4ccccc4-c4ccccc43)C2)c(=O)[nH]c1=O [5a, N-(N-Fluoren-9-ylmethoxycarbonylglycyl)-cis-4-(thymin-1-yl)-L-proline]
other
  melting point: > 200 °C

## H-[D-Ser-D-Pro(cis-4-T)]10LysNH2 [DD-ST10]
dA10 [1]
  behaviour on addition of 20 mol % of dA10: an immediate precipitation occurred

## O=C(NCC(=O)N1C[C@H](n2cnc3c(NC(=O)c4ccccc4)ncnc32)C[C@@H]1C(=O)Oc1c(F)c(F)c(F)c(F)c1F)OCC1c2ccccc2-c2ccccc21 [compound 10, N-(N-Fluoren-9-ylmethoxycarbonylglycyl)-cis-4-(N6-benzoyladenin-9-yl)-D-proline pentafluorophenyl ester]
other
  melting point: 125 to 130 °C

## Cc1cn([C@H]2C[C@H](C(=O)O)N(C(=O)CNC(=O)OCC3c4ccccc4-c4ccccc43)C2)c(=O)[nH]c1=O [5b, N-(N-Fluoren-9-ylmethoxycarbonylglycyl)-trans-4-(thymin-1-yl)-D-proline]
other
  melting point: > 200 °C

## Cc1cn([C@@H]2C[C@H](C(=O)O)N(C(=O)CNC(=O)OCC3c4ccccc4-c4ccccc43)C2)c(=O)[nH]c1=O [5c, N-(N-Fluoren-9-ylmethoxycarbonylglycyl)-cis-4-(thymin-1-yl)-D-proline]
other
  melting point: > 200 °C

## H-[Gly-D-Pro(trans-4-T)]10-Lys-NH2 [H-[Gly-D-Pro(trans-4-T)]10-LysNH2]
dA10 [2]
  Tm with dA10: No melting
poly(dA)
  Tm with poly (dA): No melting
Solubility in water
  solubility in water compared with the other T10 cPNAs: considerably more soluble than the other two
poly(rA)
  Tm with poly (rA): No melting

## H-[Gly-L-Pro(cis-4T)]10-Lys-NH2 [H-[Gly-L-Pro(cis-4-T)]10-LysNH2]
dA10 [2]
  Tm with dA10: 42 °C
dA10 [2]; listed as cis-L analogue
  Tm with dA10: near room temperature
poly(dA)
  Tm with poly (dA): 69 °C
  % hypochromicity with poly (dA): 40%
poly(rA)
  Tm with poly (rA): 73 °C
  % hypochromicity with poly (rA): 36%

## Cc1cn([C@H]2C[C@H](C(=O)Oc3c(F)c(F)c(F)c(F)c3F)N(C(=O)CNC(=O)OCC3c4ccccc4-c4ccccc43)C2)c(=O)[nH]c1=O [6b, N-(N-Fluoren-9-ylmethoxycarbonylglycyl)-trans-4-(thymin-1-yl)-D-proline pentafluorophenyl ester]
other
  melting point: 115 to 124 °C

## H-[Gly-D-Pro(cis-4-T)]10-Lys-NH2 [H-[Gly-D-Pro(cis-4-T)]10-LysNH2]
dA10 [2]
  Tm with dA10: 61 °C
dA10 [2]; on heating
  hyperchromicity of 1:1 mixture with (dA)10: ca. 20%
(dT)10
  increase in absorbance at 260 nm on heating, 1:1 mixture with (dT)10: no significant increase
poly(dA)
  Tm with poly (dA): 70 °C
  % hypochromicity with poly (dA): 28%
poly(dA); 10 mers derived from (6a), (6b) and (6c)
  binding with poly(dA), comparison of the 10 mers: binds most strongly
poly(rA)
  Tm with poly (rA): 72 °C
  % hypochromicity with poly (rA): 45%

## H-Gly-D-Pro(cis-4-G)-Gly-D-Pro(cis-4-T)-Gly-D-Pro(cis-4-A)-Gly-D-Pro(cis-4-G)-Gly-D-Pro(cis-4-A)-Gly-D-Pro(cis-4-T)-Gly-D-Pro(cis-4-C)-Gly-D-Pro(cis-4-A)-Gly-D-Pro(cis-4-C)-Gly-D-Pro(cis-4-T)-Lys-NH2 (GTAGATCACT; all [cPNA-N], 3' {LysNH2}, methylation of C not given here; glycyl-D-proline chiral PNA backbone, free N-terminus)
Sequence ID No. 3
  Tm with complementary oligonucleotide Sequence ID No. 3: 43 °C
[3]
  behaviour on mixing with complementary oligonucleotides (parallel and antiparallel): a white precipitate formed immediately
Solubility in water
  solubility in water of the cPNA alone: freely soluble
Sequence ID No. 2
  Tm with complementary oligonucleotide Sequence ID No. 2: 47 °C
